From patent publication US8404692B2, “Pyrimidin-4-yl-3, 4-dihydro-2H-pyrrolo [1,2A] pyrazin-1-one compounds” (Cyclacel Limited, priority 2005, dated 2013)

Target: T1, aurora-A (human) (Homo sapiens, UniProt O14965)
T1 construct: purchased Upstate, Dundee, UK
T1 sequence (O14965 1-403): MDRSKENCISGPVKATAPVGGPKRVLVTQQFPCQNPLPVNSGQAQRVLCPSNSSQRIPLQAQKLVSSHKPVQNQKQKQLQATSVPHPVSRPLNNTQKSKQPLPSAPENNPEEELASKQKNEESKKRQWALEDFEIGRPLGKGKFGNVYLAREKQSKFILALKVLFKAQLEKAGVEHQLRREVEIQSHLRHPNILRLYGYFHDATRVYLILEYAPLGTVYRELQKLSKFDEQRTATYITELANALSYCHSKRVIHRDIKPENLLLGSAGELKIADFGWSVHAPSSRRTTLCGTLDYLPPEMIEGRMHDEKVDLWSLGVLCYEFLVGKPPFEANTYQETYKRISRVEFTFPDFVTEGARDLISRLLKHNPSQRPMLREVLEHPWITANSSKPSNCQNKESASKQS
Test: Aurora-A (human) kinase assay
Format: biochemical
Details: read-out: Activity (Aurora A activity, IC50 grading)
Procedure: This was achieved by measurement of incorporation of radioactive phosphate from ATP into Kemptide substrate (LRRASLG), upon phosphorylation by commercially obtained aurora-A (human, Upstate; Dundee, UK). Assays were performed using 96-well plates and appropriate assay buffers (20 mM Tris, 25 mM β-glycerophosphate, 5 mM EGTA, 1 mM DTT, 1 mM sodium vanadate, pH 7.5), into which were added 2-5 ng of active enzyme with 500 μM substrate (Kemptide). The reactions were initiated by addition of MATP mix (15 mM MgCl2+100 μM ATP with 15-25 kBq per well of [γ-^32P]-ATP) and mixtures incubated for 30 min at 30° C. Reactions were stopped by addition of an equal volume of 75 mM aq orthophosphoric acid, followed by filtration through p81 filterplates (Whatman Polyfiltronics, Kent, UK). After washing 4 times with 75 mM aq orthophosphoric acid, plates were dried, scintillant added and incorporated radioactivity measured in a scintillation counter (TopCount, Packard Instruments, Pangbourne, Berks, UK). Compounds for kinase assay were made up as 10 mM stocks in DMSO and diluted into 10% DMSO in assay buffer. Data was analysed using curve-fitting software (XLfit version 4.0.2, IDBS, Guildford, Surrey, UK) to determine IC50 values (concentration of test compound which inhibits kinase activity by 50%).

| IC50 [nM] | Compound |
| --- | --- |
| < 1000 | Cc1c(-c2ccnc(Nc3ccc(S(=O)(=O)N4CCOCC4)cc3)n2)c(C)n2c1C(=O)NCC2 [Example I-50, 6,8-Dimethyl-7-{2-[4-(morpholine-4-sulfonyl)-phenylamino]-pyrimidin-4-yl}-3,4-dihydro-2H-pyrrolo[1,2-a]pyrazin-1-one] |
| < 1000 | Cc1c(-c2ccnc(Nc3ccc(-n4cccn4)cc3)n2)c(C)n2c1C(=O)NCC2 [Example I-72, 6,8-Dimethyl-7-[2-(4-pyrazol-1-yl-phenylamino)-pyrimidin-4-yl]-3,4-dihydro-2H-pyrrolo[1,2-a]pyrazin-1-one] |
| < 1000 | Cc1c(-c2ccnc(Nc3ccc(Br)cc3)n2)c(C)n2c1C(=O)NCC2 [Example I-14, 7-[2-(4-Bromo-phenylamino)-pyrimidin-4-yl]-6,8-dimethyl-3,4-dihydro-2H-pyrrolo[1,2-a]pyrazin-1-one] |
| < 1000 | Cc1c(-c2ccnc(Nc3cccc(S(=O)(=O)CCO)c3)n2)c(C)n2c1C(=O)NCC2 [Example I-15, 7-{2-[3-(2-Hydroxy-ethanesulfonyl)-phenylamino]-pyrimidin-4-yl}-6,8-dimethyl-3,4-dihydro-2H-pyrrolo[1,2-a]pyrazin-1-one] |
| < 1000 | Cc1c(-c2ccnc(Nc3ccc4c(c3)OCC(=O)N4)n2)c(C)n2c1C(=O)NCC2 [Example I-12, 7-[4-(6,8-Dimethyl-1-oxo-1,2,3,4-tetrahydro-pyrrolo[1,2-a]pyrazin-7-yl)-pyrimidin-2-ylamino]-4H-benzo[1,4]oxazin-3-one] |
| < 1000 | CCN(CC)c1ccc(Nc2nccc(-c3c(C)c4n(c3C)CCNC4=O)n2)cc1 [Example I-13, 7-[2-(4-Diethylamino-phenylamino)-pyrimidin-4-yl]-6,8-dimethyl-3,4-dihydro-2H-pyrrolo[1,2-a]pyrazin-1-one] |
| < 1000 | Cc1c(-c2ccnc(Nc3cccc(C(=O)O)c3)n2)c(C)n2c1C(=O)NCC2 [Example I-25, [4-(6,8-Dimethyl-1-oxo-1,2,3,4-tetrahydro-pyrrolo[1,2-a]pyrazin-7-yl)-pyrimidin-2-ylamino]-benzoic acid] |
| < 10000 | Cc1c(-c2ccnc(Nc3ccc(OCc4ccccc4)cc3)n2)c(C)n2c1C(=O)NCC2 [Example I-57, 7-[2-(4-Benzyloxy-phenylamino)-pyrimidin-4-yl]-6,8-dimethyl-3,4-dihydro-2H-pyrrolo[1,2-a]pyrazin-1-one] |
| < 1000 | Cc1c(-c2ccnc(Nc3ccc(Cc4ccncc4)cc3)n2)c(C)n2c1C(=O)NCC2 [Example I-54, 6,8-Dimethyl-7-[2-(4-pyridin-4-ylmethyl-phenylamino)-pyrimidin-4-yl]-3,4-dihydro-2H-pyrrolo[1,2-a]pyrazin-1-one] |
| < 1000 | CC(=O)N1CCN(C(=O)CCc2cccc(Nc3nccc(-c4c(C)c5n(c4C)CCNC5=O)n3)c2)CC1 [Example I-109, 7-(2-{3-[3-(4-Acetyl-piperazin-1-yl)-3-oxo-propyl]-phenylamino}-pyrimidin-4-yl)-6,8-dimethyl-3,4-dihydro-2H-pyrrolo[1,2-a]pyrazin-1-one] |
| < 1000 | COc1cc(Nc2nccc(-c3c(C)c4n(c3C)CCNC4=O)n2)ccc1S(=O)(=O)N1CCCCC1 [Example I-22, 7-{2-[3-Methoxy-4-(piperidine-1-sulfonyl)-phenylamino]-pyrimidin-4-yl}-6,8-dimethyl-3,4-dihydro-2H-pyrrolo[1,2-a]pyrazin-1-one] |
| < 1000 | Cc1c(-c2ccnc(Nc3ccc(C#N)cc3)n2)c(C)n2c1C(=O)NCC2 [Example I-77, 4-[4-(6,8-Dimethyl-1-oxo-1,2,3,4-tetrahydro-pyrrolo[1,2-a]pyrazin-7-yl)-pyrimidin-2-ylamino]-benzonitrile] |
| < 100 | Cc1c(-c2ccnc(Nc3cccc(-c4cncnc4)c3)n2)c(C)n2c1C(=O)NCC2 [Example I-53, 6,8-Dimethyl-7-[2-(3-pyrimidin-5-yl-phenylamino)-pyrimidin-4-yl]-3,4-dihydro-2H-pyrrolo[1,2-a]pyrazin-1-one] |
| < 1000 | COc1cc(Nc2nccc(-c3c(C)c4n(c3C)CCNC4=O)n2)ccc1S(=O)(=O)NCCN(C)C [Example I-23, N-(2-Dimethylamino-ethyl)-4-[4-(6,8-dimethyl-1-oxo-1,2,3,4-tetrahydro-pyrrolo[1,2-a]pyrazin-7-yl)-pyrimidin-2-ylamino]-2-methoxy-benzenesulfonamide] |
| < 1000 | CC(=O)N1CCN(c2ccc(Nc3nccc(-c4c(C)c5n(c4C)CCNC5=O)n3)cc2C)CC1 [Example I-8, 7-{2-[4-(4-Acetyl-piperazin-1-yl)-3-methyl-phenylamino]-pyrimidin-4-yl}-6,8-dimethyl-3,4-dihydro-2H-pyrrolo[1,2-a]pyrazin-1-one] |
| < 1000 | CCN1CCn2c(C)c(-c3ccnc(Nc4cccc(-c5ccnc(C)n5)c4)n3)c(C)c2C1=O [Example I-95, 2-Ethyl-6,8-dimethyl-7-{2-[3-(2-methyl-pyrimidin-4-yl)-phenylamino]-pyrimidin-4-yl}-3,4-dihydro-2H-pyrrolo[1,2-a]pyrazin-1-one] |
| < 100 | CNC(=O)CCc1cccc(Nc2nccc(-c3c(C)c4n(c3C)CCNC4=O)n2)c1 [Example I-112, 3-{3-[4-(6,8-Dimethyl-1-oxo-1,2,3,4-tetrahydro-pyrrolo[1,2-a]pyrazin-7-yl)-pyrimidin-2-ylamino]-phenyl}-N-methyl-propionamide] |
| < 1000 | Cc1c(-c2ccnc(Nc3ccc(-c4nncn4C)cc3)n2)c(C)n2c1C(=O)NCC2 [Example I-79, 6,8-Dimethyl-7-{2-[4-(4-methyl-4H-[1,2,4]triazol-3-yl)-phenylamino]-pyrimidin-4-yl}-3,4-dihydro-2H-pyrrolo[1,2-a]pyrazin-1-one] |
| < 1000 | Cc1ccc(Nc2nccc(-c3c(C)c4n(c3C)CCNC4=O)n2)cc1S(=O)(=O)N1CCOCC1 [Example I-36, 6,8-Dimethyl-7-{2-[4-methyl-3-(morpholine-4-sulfonyl)-phenylamino]-pyrimidin-4-yl}-3,4-dihydro-2H-pyrrolo[1,2-a]pyrazin-1-one] |
| < 1000 | Cc1c(-c2ccnc(Nc3ccc(N(C)C)cc3)n2)c(C)n2c1C(=O)NCC2 [Example I-6, 7-[2-(4-Dimethylamino-phenylamino)-pyrimidin-4-yl]-6,8-dimethyl-3,4-dihydro-2H-pyrrolo[1,2-a]pyrazin-1-one] |
| < 1000 | Cc1c(-c2ccnc(Nc3ccc(S(=O)(=O)N4CCCC4)cc3)n2)c(C)n2c1C(=O)NCC2 [Example I-55, 6,8-Dimethyl-7-{2-[4-(pyrrolidine-1-sulfonyl)-phenylamino]-pyrimidin-4-yl}-3,4-dihydro-2H-pyrrolo[1,2-a]pyrazin-1-one] |
| < 1000 | Cc1c(-c2ccnc(Nc3cccc(Cl)c3)n2)c(C)n2c1C(=O)NCC2 [Example I-69, 7-[2-(3-Chloro-phenylamino)-pyrimidin-4-yl]-6,8-dimethyl-3,4-dihydro-2H-pyrrolo[1,2-a]pyrazin-1-one] |
| < 100 | Cc1nccc(-c2cccc(Nc3nccc(-c4c(C)c5n(c4C)CCNC5=O)n3)c2)n1 [Example I-46, 6,8-Dimethyl-7-{2-[3-(2-methyl-pyrimidin-4-yl)-phenylamino]-pyrimidin-4-yl}-3,4-dihydro-2H-pyrrolo[1,2-a]pyrazin-1-one] |
| < 1000 | Cc1c(-c2ccnc(Nc3cccc(NS(C)(=O)=O)c3)n2)c(C)n2c1C(=O)NCC2 [Example I-42, N-{3-[4-(6,8-Dimethyl-1-oxo-1,2,3,4-tetrahydro-pyrrolo[1,2-a]pyrazin-7-yl)-pyrimidin-2-ylamino]-phenyl}-methanesulfonamide] |
